Test results from ChEMBL document CHEMBL1201862, “PubChem BioAssay data set” (2004).
Calls of active or inactive are those of the source.

What was measured:
[1] = biological target: Prothrombin (Homo sapiens, UniProt P00734); test: Thrombin 1536 HTS Dose Response Confirmation. [Related pubchem assays: 1046 (Thrombin 1536 HTS; hits were confirmed in this assay)]; assay type: functional
[2] = Luminescence Cell-Based Dose Response HTS to Identify Activators of Luciferase Translation or Activity in H4 […] Cells. [Related pubchem assays: 1829 (Project Summary), 1814 (Primary HTS)]; assay type: functional
[3] = biological target: T1, Heat shock factor protein 1 (Mus musculus, UniProt P38532); test: inhibition of MG132-induced HSE-luciferase signal, confirmation, cell-based, NIH3T3, luminescence, dose retest (AID 2382); assay type: functional;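 note: NIH3T3 fibroblasts with HSF1-driven luciferase reporter stressed by proteasome inhibitor MG132; luminescence from HSF1-driven luciferase expression after 8 hours of MG132 stress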
T1 sequence (P38532 whole entry): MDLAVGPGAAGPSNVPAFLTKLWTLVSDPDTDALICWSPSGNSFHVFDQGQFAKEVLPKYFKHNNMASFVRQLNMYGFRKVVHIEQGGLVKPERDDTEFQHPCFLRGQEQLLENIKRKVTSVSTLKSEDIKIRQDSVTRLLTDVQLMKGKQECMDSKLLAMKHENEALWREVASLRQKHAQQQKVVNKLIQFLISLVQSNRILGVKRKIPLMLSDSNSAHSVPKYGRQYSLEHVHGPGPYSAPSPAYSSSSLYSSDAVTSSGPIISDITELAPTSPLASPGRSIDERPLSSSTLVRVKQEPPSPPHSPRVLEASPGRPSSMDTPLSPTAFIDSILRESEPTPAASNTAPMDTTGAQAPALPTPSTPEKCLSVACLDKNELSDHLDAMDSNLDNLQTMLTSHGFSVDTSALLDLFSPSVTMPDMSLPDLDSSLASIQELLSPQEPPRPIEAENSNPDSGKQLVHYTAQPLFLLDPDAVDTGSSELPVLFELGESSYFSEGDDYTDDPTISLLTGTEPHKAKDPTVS

[4] = system: H4; test: Luminescence Cell-Based Dose Response HTS to Identify Activators of 5'UTR Stem-Loop Driven Prion Protein mRNA Translation in H4 Neuroglioblastoma Cells. [Related pubchem assays: 1829 (Project Summary), 1814 (Primary HTS)]; assay type: functional; details: Homo sapiens
[5] = Luminescence Cell-Based Dose Confirmation HTS to Identify Activators of 5'UTR Stem-Loop Driven Alpha-Synuclein mRNA Translation in H4 Neuroglioblastoma Cells. [Related pubchem assays: 1829 (Project Summary), 1814 (Primary HTS)]; assay type: functional
[6] = biological target: Cytochrome P450 2C9 (Homo sapiens, UniProt P11712)
Cytochrome P450 2C9, sequence (P11712 whole entry): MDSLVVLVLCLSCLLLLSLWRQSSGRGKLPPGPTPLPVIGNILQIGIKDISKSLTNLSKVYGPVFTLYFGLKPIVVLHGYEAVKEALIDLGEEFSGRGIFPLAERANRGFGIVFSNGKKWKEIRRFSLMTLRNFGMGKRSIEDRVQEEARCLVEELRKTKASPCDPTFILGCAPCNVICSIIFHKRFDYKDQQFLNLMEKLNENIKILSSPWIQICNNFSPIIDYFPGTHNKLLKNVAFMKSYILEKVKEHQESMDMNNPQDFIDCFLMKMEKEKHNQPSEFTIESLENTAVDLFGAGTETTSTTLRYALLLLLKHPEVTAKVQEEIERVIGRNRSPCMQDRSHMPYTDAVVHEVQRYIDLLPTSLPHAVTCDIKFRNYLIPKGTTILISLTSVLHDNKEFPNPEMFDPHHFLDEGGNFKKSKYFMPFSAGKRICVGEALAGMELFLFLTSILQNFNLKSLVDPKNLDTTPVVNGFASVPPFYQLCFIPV

[7] = biological target: Glyceraldehyde-3-phosphate dehydrogenase (Homo sapiens, UniProt P04406)
Glyceraldehyde-3-phosphate dehydrogenase, sequence (P04406 whole entry): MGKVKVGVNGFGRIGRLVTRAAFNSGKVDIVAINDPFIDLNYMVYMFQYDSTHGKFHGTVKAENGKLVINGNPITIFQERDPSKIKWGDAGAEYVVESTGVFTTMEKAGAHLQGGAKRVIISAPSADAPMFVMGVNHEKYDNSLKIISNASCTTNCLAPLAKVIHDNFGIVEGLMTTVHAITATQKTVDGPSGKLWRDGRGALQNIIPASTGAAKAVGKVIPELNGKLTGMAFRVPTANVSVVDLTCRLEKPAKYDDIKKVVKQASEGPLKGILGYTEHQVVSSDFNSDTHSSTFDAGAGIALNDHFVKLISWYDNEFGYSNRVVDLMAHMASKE

[8] = biological target: T2, DNA dC->dU-editing enzyme APOBEC-3G (Homo sapiens, UniProt Q9HC16); assay type: functional
T2 sequence (Q9HC16 whole entry): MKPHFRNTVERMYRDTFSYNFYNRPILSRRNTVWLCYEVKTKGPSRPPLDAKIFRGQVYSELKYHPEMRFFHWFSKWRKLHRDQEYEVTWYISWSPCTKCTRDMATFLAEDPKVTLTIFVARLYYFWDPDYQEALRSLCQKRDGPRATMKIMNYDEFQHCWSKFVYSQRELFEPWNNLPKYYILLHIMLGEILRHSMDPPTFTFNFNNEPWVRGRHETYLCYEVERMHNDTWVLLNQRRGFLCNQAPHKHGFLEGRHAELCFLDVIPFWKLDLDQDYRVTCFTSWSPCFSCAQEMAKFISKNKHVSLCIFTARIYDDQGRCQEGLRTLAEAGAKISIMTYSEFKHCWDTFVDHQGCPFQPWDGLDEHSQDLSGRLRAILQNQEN

[9] = biological target: DNA dC->dU-editing enzyme APOBEC-3A (Homo sapiens, UniProt P31941); test: Dose Response confirmation of small molecule APOBEC3A DNA Deaminase Inhibitors via a fluorescence-based single-stranded DNA deaminase assay. [Related pubchem assays (depositor defined):AID493011, AID493024]; assay type: functional
DNA dC->dU-editing enzyme APOBEC-3A, sequence (P31941 whole entry): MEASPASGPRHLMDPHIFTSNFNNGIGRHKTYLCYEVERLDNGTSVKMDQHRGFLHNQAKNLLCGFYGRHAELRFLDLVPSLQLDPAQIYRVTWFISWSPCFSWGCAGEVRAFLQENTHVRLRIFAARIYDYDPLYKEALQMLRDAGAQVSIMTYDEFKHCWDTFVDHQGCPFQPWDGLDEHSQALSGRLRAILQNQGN

[10] = LGR2 antagonists, dose response, cell-based, HEK293, CRE-luciferase reporter, cherry pick, set 2 (AID 743343); assay type: functional;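 note: transfected cells were stimulated with diluted bursicon conditioned medium after compound addition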
[11] = MC4R antagonists, dose response, counter-screen for LGR2 antagonist project, cell-based, plate reader, cherry pick (AID 743444); assay type: functional;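 note: transfected HEK 293 cells stimulated with alpha-MSH peptide; potency of inhibitors of the alpha-MSH evoked signal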
[12] = HEK293 cell cytotoxicity, dose response, cytotoxicity control, plate reader, cherry-picked samples (AID 743446); assay type: functional, cell-based
[13] = system: HEK293; test: inhibitors of LMP1-driven NF-kB reporter, dose response, cell-based, HEK293, luciferase, cherry-pick (AID 588343); assay type: functional; details: Homo sapiens
[14] = HepG2 cell cytotoxicity, dose response, cytotoxicity control, plate reader, cherry-pick, antagonist series (AID 743416); assay type: functional, cell-based
[15] = biological target: T2, DNA dC->dU-editing enzyme APOBEC-3G; test: Dose Response confirmation of small molecule APOBEC3G DNA Deaminase Inhibitors via a fluorescence-based single-stranded DNA deaminase assay. [Related pubchem assays (depositor defined):AID493012, AID493028]; assay type: functional
[16] = A cytotoxicity screen of small molecule inhibitors of the PhoP region in Salmonella typhi identified in the primary screen. [Related pubchem assays: 1850, 1864, 1985 ]; assay type: functional
[17] = biological target: Induced myeloid leukemia cell differentiation protein Mcl-1 (Homo sapiens, UniProt Q07820); assay type: functional
Induced myeloid leukemia cell differentiation protein Mcl-1, sequence (Q07820 whole entry, the tested form may be a part): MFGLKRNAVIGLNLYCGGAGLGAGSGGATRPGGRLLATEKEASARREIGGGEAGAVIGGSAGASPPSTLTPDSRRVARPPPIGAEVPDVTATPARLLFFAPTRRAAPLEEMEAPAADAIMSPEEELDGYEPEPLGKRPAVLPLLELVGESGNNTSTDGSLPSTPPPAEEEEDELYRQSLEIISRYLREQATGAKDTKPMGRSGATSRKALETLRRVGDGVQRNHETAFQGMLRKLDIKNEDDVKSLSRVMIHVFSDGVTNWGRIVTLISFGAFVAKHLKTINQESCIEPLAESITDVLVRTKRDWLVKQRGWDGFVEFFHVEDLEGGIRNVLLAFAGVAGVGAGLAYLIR

[18] = biological target: T3, Carboxy-terminal domain RNA polymerase II polypeptide A small phosphatase 1 (Homo sapiens, UniProt Q9GZU7); test: inhibitors of CTDSP1, concentration-response testing, biochemical assay, absorbance-based, actives from ultra-high-throughput screening (AID 540297); assay type: functional
T3 sequence (Q9GZU7 whole entry): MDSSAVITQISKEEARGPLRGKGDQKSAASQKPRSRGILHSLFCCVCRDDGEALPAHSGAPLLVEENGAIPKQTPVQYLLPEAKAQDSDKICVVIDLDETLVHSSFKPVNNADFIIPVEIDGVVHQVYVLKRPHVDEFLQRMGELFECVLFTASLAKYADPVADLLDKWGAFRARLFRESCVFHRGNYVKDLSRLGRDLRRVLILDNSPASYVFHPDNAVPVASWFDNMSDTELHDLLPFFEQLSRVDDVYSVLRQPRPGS

[19] = biological target: Luciferin 4-monooxygenase (Photinus pyralis, UniProt P08659); test: firefly luciferase enzyme inhibitors, dose response, biochemical, luminescence (AID 1891)
Luciferin 4-monooxygenase, sequence (P08659 whole entry): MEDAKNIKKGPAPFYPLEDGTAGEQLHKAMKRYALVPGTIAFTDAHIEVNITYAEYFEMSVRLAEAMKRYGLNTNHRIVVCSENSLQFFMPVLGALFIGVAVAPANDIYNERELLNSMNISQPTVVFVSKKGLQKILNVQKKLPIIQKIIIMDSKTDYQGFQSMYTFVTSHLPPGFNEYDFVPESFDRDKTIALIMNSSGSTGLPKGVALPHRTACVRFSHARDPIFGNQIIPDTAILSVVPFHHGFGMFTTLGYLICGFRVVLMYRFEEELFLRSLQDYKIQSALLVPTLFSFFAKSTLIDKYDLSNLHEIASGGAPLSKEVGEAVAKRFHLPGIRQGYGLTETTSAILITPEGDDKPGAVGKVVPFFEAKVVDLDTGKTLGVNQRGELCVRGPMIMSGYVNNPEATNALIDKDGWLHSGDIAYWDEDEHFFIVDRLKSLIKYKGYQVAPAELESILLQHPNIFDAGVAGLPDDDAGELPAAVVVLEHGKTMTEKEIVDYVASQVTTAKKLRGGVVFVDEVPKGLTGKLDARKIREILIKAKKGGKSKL

[20] = Luminescence Cell-Based Dose Confirmation HTS to Identify Inhibitors of Platelet Dense Granule Release. [Related pubchem assays: 1663 (Primary HTS), 1678 (Summary of Project)]; assay type: functional

In the case of `O=C(c1ccccc1)n1nnc2ccccc21`, the IC50 [1] is reported as 0.431 µM (active).
For `CC1=C(C(=O)Nc2ccccc2)C(c2ccc(O)cc2)N2C(=O)CSC2=N1` (stereo not drawn), the IC50 [1] was 25.2 µM (active).
In the case of `COc1ccccc1C(=O)NC(=S)N1CCCc2ccccc21`, the EC50 [2] is reported as 9.63 µM (active), the EC50 [3] is reported as 16.2 µM (active) and the EC50 [4] is reported as 31.6 µM (active). For the same compound, the EC50 [5] was 29.9 µM (active) and the AC50 [6] was “inconclusive”.
In the case of `O=C1C(Cl)=C(N2CCN(Cc3ccc4c(c3)OCO4)CC2)C(=O)N1c1ccc(C(F)(F)F)cc1`, the IC50 [7] is reported as > 50 µM (inconclusive).
For `CCN1C(NCCOC)=N[C@@H](c2cccs2)C(C(=O)OC)=C1C`, the IC50 [8] was 8.01 µM (active) and the IC50 [9] was 4.37 µM (active).
For `COC(=O)C1=C(C)N(Cc2ccccc2)C(NCCCCO)=N[C@H]1c1cccc(C(F)(F)F)c1`, the IC50 [8] was 7.1 µM (active) and the IC50 [9] was 4.94 µM (active).
With `O=C(Nc1ccccc1)c1cn2ccccc2n1` the AC50 [10] was 6.06 µM (active), the AC50 [11] was 6.74 µM (active) and the AC50 [12] was 48.4 µM (active). For the same compound, the AC50 [13] was 3.47 µM (active) and the AC50 [14] was > 52 µM (inactive).
For `COc1ccccc1OC(C)C(=O)N1CCN(Cc2ccc3c(c2)OCO3)CC1` (stereo not drawn), the IC50 [8] was 8.33 µM (active) and the IC50 [9] was 7.43 µM (active).
In the case of `COc1ccc(NC(=S)c2ccc3ccccc3n2)cc1`, the IC50 [15] is reported as 66.5 µM (active).
With `CN(Cc1ccccc1)CC(O)COc1ccc(CNCCCOc2cccnc2)cc1` (stereo not drawn) the EC50 [16] was > 50 µM (active).
In the case of `CCN(c1ccc(NC(=O)COC(=O)/C=C/c2cccs2)cc1)C(C)C`, the IC50 [17] is reported as 3.34 µM (active).
In the case of `O=C1CCCC(O)=C1Sc1ccccc1C(=O)O`, the IC50 [8] is reported as 43.8 µM (active) and the IC50 [9] is reported as 13.3 µM (active).
For `CC(C)c1ccc2oc(=O)cc(CN3CCN(c4ccc(F)cc4)CC3)c2c1`, the EC50 [16] was > 50 µM (active).
With `Cc1ccc(S(=O)(=O)N2CCN(C(=O)C3COc4ccccc4O3)CC2)cc1C` (stereo not drawn) the AC50 [6] was “inconclusive”.
For `Cn1cnc(C(=O)N2CCN(c3ccccc3)CC2)c1C(=O)N1CCN(c2ccccc2)CC1`, the IC50 [18] was 7.05 µM (active), the IC50 [8] was 6.53 µM (active) and the IC50 [9] was 2.75 µM (active).
With `CC(=O)c1c(C)[nH]c(C(=O)CSc2nnc(-c3ccc(Cl)cc3)n2CC2CCCO2)c1C` (stereo not drawn) the EC50 [19] was > 112 µM (not active), the EC50 [20] was > 112 µM (not active) and the EC50 [16] was > 50 µM (active).
For `Cc1cc2ncn(C(=O)c3ccc4c(c3)OCO4)c2cc1C`, the IC50 [1] was 5.76 µM (active).
